Values quoted from earlier work in US20170157095A1, “ALLISARTAN ISOPROXIL SOLID DISPERSION AND PHARMACEUTICAL COMPOSITION” (SHENZHEN SALUBRIS PHARMACEUTICALS CO., LTD, priority 2014, published 2017).

Structure (SMILES): CCCCc1nc(Cl)c(C(=O)OCOC(=O)OC(C)C)n1Cc1ccc(-c2ccccc2-c2nnn[nH]2)cc1 [Allisartan isoproxil, 2-butyl-4-chloro-1-[2′-(1H-tetrazol-5-yl)-1,1′-biphenyl-methyl]-imidazole-5-carboxylic acid, 1-[(isopropoxy)-carbonyloxy]-methyl ester]
- solubility in water: low
